# Test results reported in article PMC6461108, “A catalytic protein–proteomimetic complex: using aromatic oligoamide foldamers as activators of RNase S” (Chemical Science, 2019).
# Values joined by “and” are separate entries in the source; they are usually repeats but may differ in a detail not shown here. Equal entries are not always repeated.
# Key:
# S-protein [1] = target: T1, S-protein (Bos taurus, UniProt P61823); test: Native ESI-MS of S-protein complexes; assay type: binding, bovine
# T1 construct: S-protein22-124; host or cells: none: purchased RNase A digested with subtilisin, S-protein purified by RP-HPLC
# T1 sequence (P61823 48-150): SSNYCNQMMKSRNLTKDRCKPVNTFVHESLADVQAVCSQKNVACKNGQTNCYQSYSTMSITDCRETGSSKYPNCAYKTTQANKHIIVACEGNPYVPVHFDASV
# p53/hDM2 interaction = p53/hDM2 interaction (Homo sapiens, UniProt Q00987); test: Fluorescence anisotropy competition assay against p53/hDM2; assay type: binding; settings: FITC-p53 15-31 tracer; for IC50: 50 mM phosphate pH 7.5, 200 mM NaCl, 0.02 mg/mL BSA
# Excerpt: The calculation was run to generate 10 000 conformer sets, of which the lowest energy […]
# in total) were retained for docking experiments. The lowest energy conformers belong to the same family of conformers and are well superimposed with the first lowest energy […]
# protein (from 4YGW) and S-protein in complex with dApTpApApG (1RCN) using Glide XP method.11-13 All of the input ligands gave a pose in the S-protein binding groove. The […]
# 12, were refined using the induced fit docking against S-protein in complex with the oligonucleotide. Side chains of S-protein binding groove were automatically trimmed (based on B-factor) during docking calculation and restored for the final refinement.
# The library of hybrid mimetics were docked as flexible ligands against the S-protein in complex with the oligonucleotide fragment using Glide XP (extra precision) method.11-13 […]
# ligands against S-protein in complex with the oligonucleotide fragment using Glide XP method11-13 and refined using induced fit docking (Fig S7).
# The fluorescein-labelled p5315-31–Flu 3,4 was purchased from peptide protein research Ltd.
# Fluorescence anisotropy assays were performed in 384-well black plates (Greiner Bio-one). Each experiment was run in triplicate and fluorescence anisotropy was measured using a Perkin Elmer EnVisionTM 2103 MultiLabel plate reader. […]
# For control wells in both assays, the tracer peptide was replaced with an identical volume of assay buffer. […] Plates were read after 1 h of incubation at room temperature. […]
# The average anisotropy (across three experimental replicates) and the standard deviation of these values were then calculated and fit to a sigmoidal logistic model (Equation 3) using OriginPro 9.0 which provided the IC50 and error values. […]
# UV absorbance analyses were recorded in a 1 mm path-length quartz cuvette on a Perkin Elmer Lambda 900 UV/VIS/NIR spectrometer.
# High-resolution mass spectrometry (HRMS) data was recorded using electrospray ionization in positive mode (ESI+) with a Bruker MaXis Impact spectrometer. […]
# RNase S-protein [2] = target: T2, RNase S-protein (Bos taurus, UniProt P61823); test: RNA degradation assay (EtBr fluorescence), reactivation of S-protein; assay type: biochemical, bovine; design: S-protein22-124; host or cells: none: purchased RNase A digested with subtilisin, S-protein purified by RP-HPLC; settings: for % remaining fluorescence (100 µM): 100 µM compound, 0.05 µM S-protein, 45 min, 25 °C, Tris pH 6.5
# T2 sequence (P61823 48-150): T1 sequence (P61823 48-150)
# RNase S-protein [3] = target: T2, RNase S-protein; test: Kinetics of RNA hydrolysis by S-protein with S-peptide or mimetic; settings: S-protein 0.05 µM, S-peptide 0.4 µM or 1a 100 µM
# RNase S-protein [4] = target: T3, RNase S-protein (Bos taurus, UniProt P61823); test: Regulation of S-protein activity by hDM2 (RNA degradation assay); settings: hDM2 10 μM; 1a 100 μM or S-peptide 0.4 μM with S-protein
# T3 sequence (P61823 47-150 limits assumed): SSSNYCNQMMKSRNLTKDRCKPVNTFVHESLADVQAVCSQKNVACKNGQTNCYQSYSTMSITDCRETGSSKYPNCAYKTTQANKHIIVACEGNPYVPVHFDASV
# S-protein [5] = target: T1, S-protein; test: Isothermal titration calorimetry with S-protein; assay type: binding, bovine
# [6] = S-protein titrated into mimetic, 37 °C
Compound,S-protein/mimetic complexes detected by native ESI-MS (S-protein [1]; 5-fold excess of mimetic (10 μM) relative to S-protein (2 μM)),"ternary complex in native MS competition with increasing S-peptide (S-protein [1]; S-protein and 1a constant, increasing S-peptide)",IC50 (p53/hDM2 interaction),% remaining fluorescence (100 µM) (RNase S-protein [2]) [%],"activity in RNA degradation assay at a single concentration (SAR set 1a-1d) (RNase S-protein [2]; single concentration, 20 µL of 1 mM stock in 200 µL)","V0, average initial rate of RNA degradation (RNase S-protein [3]; CRNA 50) [g/mL/s]","V0, average initial rate of RNA degradation (RNase S-protein [3]; CRNA 75) [g/mL/s]","V0, average initial rate of RNA degradation (RNase S-protein [3]; CRNA 125) [g/mL/s]","V0, average initial rate of RNA degradation (RNase S-protein [3]; CRNA 200) [g/mL/s]","V0, average initial rate of RNA degradation (RNase S-protein [3]; CRNA 300) [g/mL/s]","V0, average initial rate of RNA degradation (RNase S-protein [3]; CRNA 425) [g/mL/s]","V0, average initial rate of RNA degradation (RNase S-protein [3]; CRNA 575) [g/mL/s]",effect of added hDM2 on RNA hydrolysis (RNase S-protein [4]),Kd (S-protein [5]) [µM],"H (kcal/mol), ITC (S-protein [5]; [6]) [kcal/mol]","S (cal/molK), ITC (S-protein [5]; [6]) [cal/molK]",n (ITC stoichiometry) (S-protein [5]; [6]),competition with fluorescently labelled p53 peptide for hDM2 (p53/hDM2 interaction)
CC(C)Oc1cc(NC(=O)[C@H](Cc2ccccc2)NC(=O)c2ccc(N)c(OCc3ccc(Cl)cc3)c2)ccc1C(=O)NCC(=O)O [Compound 1a],1 : 1 complex and a lower intensity 1 : 2 S-protein/mimetic 1a complex could be detected,no ternary complex could be detected,10.9 µM and ~10 µM,40,active,0.016 ± 0.001,0.04 ± 0.004,0.088 ± 0.009,0.126 ± 0.011,0.168 ± 0.016,0.211 ± 0.032,0.254 ± 0.053,suppressed,1.85 ± 0.97,-19.04 ± 1.90,-35.2,0.089 and 0.1,–
CC(C)Oc1cc(NC(=O)[C@H](Cc2ccccc2)NC(=O)c2ccc(N)c(OCc3ccc4ccccc4c3)c2)ccc1C(=O)NCC(=O)O [Compound 4],–,–,8.1 ± 0.3 µM,44,–,–,–,–,–,–,–,–,–,–,–,–,–,–
"Ac-KETAAAKFERQHMDS-NH2 [S-peptide, reference compound]",–,–,–,–,–,0.057 ± 0.002,0.097 ± 0.004,0.159 ± 0.008,0.226 ± 0.011,0.296 ± 0.029,0.362 ± 0.037,0.431 ± 0.050,no effect on catalysis,0.13 ± 0.02,–,–,–,did not compete
